Experimental data taken from publication PMC3772510 (ChemMedChem, 2011).
≈ marks a conversion by molar mass, not a printed value.

Test: aqueous solubility
Assay type: physicochemical

In the case of `COc1ccc(C2=N[C@@H](c3ccc(Cl)cc3)[C@@H](c3ccc(Cl)cc3)N2C(=O)N2CCNC(=O)C2)c(OC(C)C)c1` [Nutlin-3a, nutlin-3a], the aqueous solubility is reported as 100 µg/mL (≈ 172 µM).
